Results: patent publication US9927437B2, “Treating neurodegenerative disease” (THE BRIGHAM AND WOMEN'S HOSPITAL, INC., priority 2013, dated 2018)

Test system: astrocytes
Assay: mRNA expression in astrocytes isolated from EAE NOD mice (nCounter, qPCR)
Assay type: in vivo, mouse
Procedure: Mononuclear cells were isolated from the CNS as previously described^50 with minor modifications. Naïve and EAE mice were euthanatized, and then subjected to perfusion through the left ventricle with ice-cold sterile PBS. Brains and spinal cord were then removed, minced and enzymatically dissociated with 0.05% (w/v) collagenase type III (Worthington Biochemical), 0.5% Dispase II (Roche Applied Science), 40 μg/ml DNAse I, 20 mM HEPES in HBSS) for 30 min at 37 C to make a suspension of single cells. Enzymes were inactivated with 20 ml of Ca^2+/Mg^2+-free HBSS containing 2 mM EDTA and 20 mM HEPES. The digested tissue was triturated and passed through a […] cell strainer. Cells were centrifuged and resuspended in 30% isotonic Percoll (GE Healthcare) and 40 μg/ml DNAse I, underlined by 70% isotonic Percoll, and centrifuged at 1000×g at 4° C. for 25 min. Cells were collected from the 70%-30% interphase, and sorted by FACS Aria.
These purification procedures are based on previously described dissociation and purification protocols^50,51. Isolated CNS cells, were incubated with anti-Mouse CD16/CD32 for 15 min on ice to block the Fc receptors, and stained with fluorochrome-conjugated antibody for CD11b (M1/70), CD45(90), CD3 (145-2C11), CD4 (GK1.5), and Ly6C (HK1.4), and Biotion-conjugated GSL I—isolectin B4 (Vector labs), CD105 (N418), CD140a (APA5), CD11c (N418), F4/80 (BM8), O4 (O4, Miltenyi Biotec), and CD19 (eBio1D3), and un-conjugated antibodies recognizing mouse MOG (8-18C5, Millipore), O1 (O1), and Galactocerebroside (mGlaC, Millipore). All antibodies were from Ebioscience, unless otherwise mentioned (clone number, when relevant, in parentheses). Cells were washed and incubated PE-conjugated Streptavidin and R-Phycoerythrin AffiniPure F(ab′)2 fragment of Goat Anti-Mouse IgG+IgM (H+L) (Jackson ImmunoResearch laboratories) for 20 min at 4 C in the dark. Cells were washed, incubated with 7-AAD or Fixable Viability Dye eFluor® 450 (if cells were to be used for intracellular staining), for exclusion of dead cells (FIG. S3A), and sorted as following. Microglia were sorted as CD11b^+ cells with low CD45 expression and low Ly6C (CD11b+/CD45^low/Ly6C^low), while the inflammatory monocytes were considered as CD11b^+/Ly6C^high 52. T-cells were sorted as CD3^+CD4^+ cells. Astrocytes were isolated following the depletion of lymphocytes, microglia, monocytes (FIG. S3B), and oligodendrocytes, and lymphocytes (T-cells, B-cells, and NK cells) (FIG. S3C). […] We confirmed that we had isolated a relatively pure populations of astrocytes by qPCR for the astrocyte markers^44,51 gfap, aldh1l1 and aqp4, and found them to be exclusively expressed in the astrocyte fraction (in a similar expression pattern to that of GFP^+ astrocytes sorted from Tg(GFP-hGFAP) FVB transgenic mice^49) (FIG. S3E). We used an additional cohort of markers to explore for presence of immune cells [microglia/monocytes cells—itgam (CD11b), and emr1 (F4/80), dendritic cells—itgax (CD11c), NK cells—Klrb1c (Nk1.1), T-cells—cd3, and B-cells—cd19], oligodendrocytes (mog, mbp), and neurons (syt1, snap25) (FIG. S3F, G).
100-200 ng of total RNA was hybridized with reporter and capture probes for nCounter Gene Expression code sets (Mouse Inflammation Kit, or a custom made astrocyte-oriented probe set (Table S1)), according to manufacturer's instructions (NanoString Technologies). Data were normalized to spiked positive controls and housekeeping genes (nSolver Analysis system). Transcript counts less than the mean of the negative control transcripts plus 2 standard deviations for each sample were considered background.
Nanostring generated gene expression data were analyzed by use of the Expander 6.06 platform^53. Genes were clustered using the unbiased CLICK algorithm, and each cluster was further analyzed for enrichments in transcription factors binding sites (promoter analysis).

Compound	b4galt6 and b4galt5 expression in astrocytes (NOD EAE, i.c.v. lentivirus at day 35, qPCR)	csf2 expression in astrocytes (chronic NOD EAE, 10 days after i.c.v. shRNA lentivirus)	expression of demyelination-associated genes in astrocytes (NOD EAE progressive phase)	expression of remyelination-associated genes in astrocytes (NOD EAE progressive phase)	expression of representative cluster 2 genes (ccl2, ccl5, cxcl10, il1b, nos2, opn, H2-Aa, vim) in astrocytes (NOD EAE progressive phase (day 100), qPCR)	irf1 and relB expression in astrocytes (NOD EAE, qPCR)
shB4galt6: lentivirus-delivered shRNA against b4galt6 (TRCN0000334278; SEQ ID NO:3) (guide CGATGGACTGAACAATTTATTCTCGAGAATAAATTGTTCAGTCCACG)	astrocyte-specific knock-down	significant decrease	–	–	–	–
CCCCCCCCCC(=O)N[C@H](CN1CCOCC1)[C@H](O)c1ccccc1 [PDMP, D-threo-1-phenyl-2-decanoylamino-3-morpholino-1-propanol]	–	–	significant reduction	increased expression	suppressive effects	subsequent suppression
